Test results taken from the NIST ThermoML archive (doi:10.1016/j.jct.2008.09.002).

What was measured:
[1] = xn = mol fraction of the nth substance listed; conditions: 101.3 kPa, Liquid, Vibrating tube method
[2] = molar heat capacity at constant pressure; xn = mol fraction of the nth substance listed; conditions: 101.3 kPa, Liquid, Small sample (50 mg) DSC
[3] = excess molar enthalpy (molar enthalpy of mixing); xn = mol fraction of the nth substance listed; conditions: 303.15 K, 101.3 kPa, Liquid, Calvet calorimetry

C[N+](=O)[O-] [nitromethane] + CCOS(=O)(=O)[O-].CCn1cc[n+](C)c1
Conditions	mass density, [1] [kg/m3]	molar heat capacity at constant pressure, [2] [J/K/mol]
293.15 K, x2 = 0.0513	1162.5	120.8
293.15 K, x2 = 0.0991	1176.4	134.3
293.15 K, x2 = 0.2013	1196.4	164
293.15 K, x2 = 0.3095	1209.6	195.4
293.15 K, x2 = 0.4073	1217.8	223.5
293.15 K, x2 = 0.5056	1223.9	–
293.15 K, x2 = 0.5489	1226.3	264
293.15 K, x2 = 0.5944	1228.3	–
293.15 K, x2 = 0.689	1232.1	304
293.15 K, x2 = 0.7805	1235.1	329.9
293.15 K, x2 = 0.8817	1237.9	358.6
293.15 K, x2 = 0.9398	1239.3	–
293.15 K, x2 = 0.9522	1239.6	–
298.15 K, x2 = 0.0513	1156.4	121.1
298.15 K, x2 = 0.0991	1170.9	134.7
298.15 K, x2 = 0.2013	1191.5	164.6
298.15 K, x2 = 0.3095	1205.1	196.1
298.15 K, x2 = 0.4073	1213.6	224.4
298.15 K, x2 = 0.5056	1220	–
298.15 K, x2 = 0.5489	1222.4	265.2
298.15 K, x2 = 0.5944	1224.5	–
298.15 K, x2 = 0.689	1228.4	305.5
298.15 K, x2 = 0.7805	1231.5	331.6
298.15 K, x2 = 0.8817	1234.4	360.5
298.15 K, x2 = 0.9398	1235.8	–
298.15 K, x2 = 0.9522	1236.2	–
303.15 K, x2 = 0.0513	1150.4	121.6
303.15 K, x2 = 0.0991	1165.3	135.3
303.15 K, x2 = 0.2013	1186.6	165.3
303.15 K, x2 = 0.3095	1200.7	196.9
303.15 K, x2 = 0.4073	1209.5	225.5
303.15 K, x2 = 0.5056	1216	–
303.15 K, x2 = 0.5489	1218.5	266.6
303.15 K, x2 = 0.5944	1220.7	–
303.15 K, x2 = 0.689	1224.7	307.2
303.15 K, x2 = 0.7805	1228	333.5
303.15 K, x2 = 0.8817	1230.9	362.6
303.15 K, x2 = 0.9398	1232.4	–
303.15 K, x2 = 0.9522	1232.7	–
308.15 K, x2 = 0.0513	1144.3	122.1
308.15 K, x2 = 0.0991	1159.7	135.9
308.15 K, x2 = 0.2013	1181.7	166
308.15 K, x2 = 0.3095	1196.2	197.8
308.15 K, x2 = 0.4073	1205.3	226.7
308.15 K, x2 = 0.5056	1212.1	–
308.15 K, x2 = 0.5489	1214.6	268.1
308.15 K, x2 = 0.5944	1216.9	–
308.15 K, x2 = 0.689	1221	308.9
308.15 K, x2 = 0.7805	1224.4	335.5
308.15 K, x2 = 0.8817	1227.5	364.8
308.15 K, x2 = 0.9398	1229	–
308.15 K, x2 = 0.9522	1229.3	–
313.15 K, x2 = 0.0513	1138.2	122.7
313.15 K, x2 = 0.0991	1154.2	136.6
313.15 K, x2 = 0.2013	1176.9	166.8
313.15 K, x2 = 0.3095	1191.8	198.7
313.15 K, x2 = 0.4073	1201.2	227.9
313.15 K, x2 = 0.5056	1208.2	–
313.15 K, x2 = 0.5489	1210.8	269.7
313.15 K, x2 = 0.5944	1213.1	–
313.15 K, x2 = 0.689	1217.4	310.9
313.15 K, x2 = 0.7805	1220.9	337.7
313.15 K, x2 = 0.8817	1224	367.1
313.15 K, x2 = 0.9398	1225.6	–
313.15 K, x2 = 0.9522	1225.9	–
318.15 K, x2 = 0.0513	1132.2	123.2
318.15 K, x2 = 0.0991	1148.6	137.2
318.15 K, x2 = 0.2013	1172	167.6
318.15 K, x2 = 0.3095	1187.4	199.7
318.15 K, x2 = 0.4073	1197.1	229.2
318.15 K, x2 = 0.5056	1204.2	–
318.15 K, x2 = 0.5489	1207	271.4
318.15 K, x2 = 0.5944	1209.3	–
318.15 K, x2 = 0.689	1213.8	312.9
318.15 K, x2 = 0.7805	1217.3	340
318.15 K, x2 = 0.8817	1220.6	369.6
318.15 K, x2 = 0.9398	1222.2	–
318.15 K, x2 = 0.9522	1222.5	–

[3]
Conditions	excess molar enthalpy [kcal/mol]
x2 = 0.1001	-0.0688
x2 = 0.1977	-0.116
x2 = 0.3075	-0.142
x2 = 0.4001	-0.154
x2 = 0.5071	-0.148
x2 = 0.6026	-0.131
x2 = 0.6953	-0.108
x2 = 0.8026	-0.0736
x2 = 0.8668	-0.05
